How the values were obtained:
[1] = tested on: mGRFT binding to biotinylated Man-9; assay: BLI competition assay against immobilized Man-9; set-up: species or system Griffithsia; settings: Man-9 immobilized
Procedure: To further probe this ultra-high-affinity interaction, we performed a BLI competition assay to determine whether the [2DEG]^2+ complex could outcompete mGRFT’s natural ligand, Man-9. Biotinylated Man-9 was immobilized on the BLI biosensor tip, which was then dipped into solutions containing mGRFT that was pre-incubated with varying concentrations of [2DEG]^2+. […] More broadly, this finding highlights the power of rational synthetic design to generate glycomimetics capable of outperforming their biological counterparts.
(§1) All BLI experiments were performed at 25 °C on an Octet R2 instrument using SA or NiNTA biosensors. Ligand was loaded onto the biosensors followed by a baseline then association and dissociation phase. Biosensors were regenerated and this process was repeated for varying concentrations of analyte. Data was processed in Octet analysis studio 13.0. The samples were double referenced, first to a reference sensor then to a well containing no analyte. The trace responses were aligned to the average of the final 5s of the baseline and inter-step corrected to the dissociation step. A Savitzky-Golay filter was applied to reduce high frequency noise. The association and dissociation phases were fit globally to a 1:1 single exponential binding model. All conditions were run in triplicate.

[2] = molecular target: monomeric Griffithsin (mGRFT) (Griffithsia sp., UniProt P84801, INS16GS); assay: Biolayer interferometry (BLI) binding to mGRFT; settings: for Kd: mGRFT as the analyte, 25 °C
Procedure: as §1

[3] = molecular target: GRFT; set-up: method as in PMID 17340634; settings: free mannose; cited from earlier work
[4] = molecular target: mGRFT (Griffithsia sp., UniProt P84801, INS16GS); assay: Isothermal titration calorimetry (ITC) binding to mGRFT; settings: two-site model
mGRFT, sequence (P84801 whole entry, stated change not applied): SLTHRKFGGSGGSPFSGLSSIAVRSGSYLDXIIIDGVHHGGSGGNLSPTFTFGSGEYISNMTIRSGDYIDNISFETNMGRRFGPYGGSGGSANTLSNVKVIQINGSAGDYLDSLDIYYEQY

monomeric Griffithsin (mGRFT), sequence (P84801 whole entry, stated change not applied): as above

For `OC[C@H]1O[C@H](O[C@@H]2[C@@H](OCCOCCOc3ccc(/C=N/CCN(CC/N=C/c4ccc(OCCOCCO[C@H]5O[C@H](CO)[C@@H](O)[C@H](O)[C@@H]5O[C@H]5O[C@H](CO)[C@@H](O)[C@H](O)[C@@H]5O)cn4)CC/N=C/c4ccc(OCCOCCO[C@H]5O[C@H](CO)[C@@H](O)[C@H](O)[C@@H]5O[C@H]5O[C@H](CO)[C@@H](O)[C@H](O)[C@@H]5O)cn4)nc3)O[C@H](CO)[C@@H](O)[C@@H]2O)[C@@H](O)[C@@H](O)[C@@H]1O.[Fe+2]` [[2DEG]^2+], which “reduction of BLI response in the association phase” value ([1]; 0.5 molar equivalents of complex pre-incubated with mGRFT) is on record?
Its value is “approximately 50%”.

What about the “reduction of BLI response in the association phase” value ([1]; two molar equivalents of complex pre-incubated with mGRFT) of the same compound?
The value was “nearly eliminating the response entirely”.

And the dissociation rate kd ([2]; 1:1 binding model)?
The dissociation rate kd was “no measurable dissociation”.

Which Kd ([2]; biotinylated Man-9 as the ligand) does the source give for Man-9 here?
Its Kd is 0.067 ± 0.001 µM.

Which Kd ([2]; biotinylated Man-5 as the ligand, kinetic fitting and steady state analysis) does the source give for Man-5 here?
The Kd was 40 ± 10 µM.

Which Kd [3] does the source give for `OC[C@H]1OC(O)[C@@H](O)[C@@H](O)[C@@H]1O` (stereo partly shown) [free mannose, mannose] here?
The Kd was 102 µM.

With `OC[C@H]1O[C@H](OCCOCCOc2ccc(/C=N/CCN(CC/N=C/c3ccc(OCCOCCO[C@H]4O[C@H](CO)[C@@H](O)[C@H](O)[C@@H]4O)cn3)CC/N=C/c3ccc(OCCOCCO[C@H]4O[C@H](CO)[C@@H](O)[C@H](O)[C@@H]4O)cn3)nc2)[C@@H](O)[C@@H](O)[C@@H]1O.[Fe+2]` [[1DEG]^2+, [Fe(DEGman)3][SO4]] as the compound, how does the “stoichiometry of each interaction” value [4] read?
Its value is “one”.

From article doi:10.64898/2025.12.17.694979, “Tunable multivalent Fe(II)-based glycoassemblies as mimetics for native high-mannose glycans” (bioRxiv, 2025)
